The values below come from ChEMBL document CHEMBL1909046, “DrugMatrix in vitro pharmacology data”.

For one experiment, the target named is Tyrosine-protein kinase Fyn (Homo sapiens, UniProt P06241). The experiment can be described thus: biochemical. The class given is cell-based, Insect cells. The settings on record: insect cells.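 Note: enzymatic inhibition of Fyn kinase activity measured with Poly(Glu:Tyr) as the phosphorylation substrate; in other assays of this panel Not Active means under 50% inhibition at 10 µM.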
Chain of Tyrosine-protein kinase Fyn (P06241 whole entry): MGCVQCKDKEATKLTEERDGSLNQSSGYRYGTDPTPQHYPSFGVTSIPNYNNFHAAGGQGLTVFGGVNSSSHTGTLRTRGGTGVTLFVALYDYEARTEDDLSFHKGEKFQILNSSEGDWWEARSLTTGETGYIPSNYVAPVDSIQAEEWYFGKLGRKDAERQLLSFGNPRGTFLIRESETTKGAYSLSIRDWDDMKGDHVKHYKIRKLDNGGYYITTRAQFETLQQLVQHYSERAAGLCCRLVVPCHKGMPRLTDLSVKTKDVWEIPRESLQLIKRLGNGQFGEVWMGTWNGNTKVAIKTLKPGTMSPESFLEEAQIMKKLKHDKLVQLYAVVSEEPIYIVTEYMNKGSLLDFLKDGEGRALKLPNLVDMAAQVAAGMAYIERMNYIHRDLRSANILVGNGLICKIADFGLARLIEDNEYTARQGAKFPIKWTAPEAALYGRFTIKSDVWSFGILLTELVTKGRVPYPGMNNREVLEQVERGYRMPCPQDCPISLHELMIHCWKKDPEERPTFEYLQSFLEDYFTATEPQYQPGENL
One may read the IC50 as the concentration needed to halve the response being measured. For `NC(=O)N1c2ccccc2CCc2ccccc21`, the IC50 result is reported as “Not Active”.
On the same count and under the same terms, to `CC(C)C(Br)C(=O)NC(N)=O` (centres undefined) [BROMISOVALUM] belongs “Not Active”.
`COc1ccc(C[C@H]2NC[C@H](O)[C@H]2OC(C)=O)cc1` [ANISOMYCIN]: the IC50 result is “Not Active” and the Ki entry is reported as “Not Active”.
For `C[C@]12CCC(=O)C=C1CC[C@@H]1[C@@H]2CC[C@@]2(C)[C@H]1CC[C@]2(C)O` [METHYLTESTOSTERONE], the concentration for half-maximal inhibition (IC50) result is on record as “Not Active”.
Still for that read-out and setting: to `O=C1CC[C@@H](N2C(=O)c3ccccc3C2=O)C(=O)N1` belongs “Not Active”; to `Cc1c(O)c(=O)ccn1C` [DEFERIPRONE], “Not Active”.
The same measure, in the same setting: the value for `CCCN1C[C@H](CSC)C[C@@H]2c3cccc4[nH]cc(c34)C[C@H]21` [PERGOLIDE] was “Not Active”; that for `COc1cc2nc(N3CCN(C(=O)C4COc5ccccc5O4)CC3)nc(N)c2cc1OC` (centres undefined) [DOXAZOSIN] was “Not Active”.

Staying with this experiment, now noted: read-out: IC50.
Consider `CN(C)CCCN1c2ccccc2Sc2ccc(Cl)cc21` [CHLORPROMAZINE], for which the IC50 amounted to 8.68 µM.

Another experiment addresses T1, Muscarinic acetylcholine receptor M5 (Homo sapiens, UniProt P08912).
T1 sequence (P08912 whole entry): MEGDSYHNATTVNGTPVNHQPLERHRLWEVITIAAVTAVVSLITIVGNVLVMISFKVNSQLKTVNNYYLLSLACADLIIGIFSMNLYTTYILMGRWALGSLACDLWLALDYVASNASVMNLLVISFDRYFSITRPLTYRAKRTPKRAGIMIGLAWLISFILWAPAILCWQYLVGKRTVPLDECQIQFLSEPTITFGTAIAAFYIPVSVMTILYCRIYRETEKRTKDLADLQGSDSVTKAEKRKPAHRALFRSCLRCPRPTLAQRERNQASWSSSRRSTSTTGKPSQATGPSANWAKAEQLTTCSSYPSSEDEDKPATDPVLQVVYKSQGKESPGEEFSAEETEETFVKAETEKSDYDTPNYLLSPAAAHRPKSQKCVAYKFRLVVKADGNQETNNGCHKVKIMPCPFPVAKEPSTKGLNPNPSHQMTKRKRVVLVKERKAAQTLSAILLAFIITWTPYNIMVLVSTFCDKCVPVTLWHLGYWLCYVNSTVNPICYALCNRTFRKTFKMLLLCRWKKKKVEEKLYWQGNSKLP
Experiment: not given
The settings on record: cho-k1. The class given is cell membranes, CHO-K1, Membrane.
Take `NC(=O)N1c2ccccc2CCc2ccccc21`: the IC50 result was “Not Active”.
On the same count and under the same terms, the value for `CC(C)C(Br)C(=O)NC(N)=O` (centres undefined) [BROMISOVALUM] was “Not Active”.
With `COc1ccc(C[C@H]2NC[C@H](O)[C@H]2OC(C)=O)cc1` [ANISOMYCIN], the half-maximal inhibitory concentration (IC50) result is given as “Not Active” and the Ki result was “Not Active”.
With `C[C@]12CCC(=O)C=C1CC[C@@H]1[C@@H]2CC[C@@]2(C)[C@H]1CC[C@]2(C)O` [METHYLTESTOSTERONE], the 50% inhibitory concentration (IC50) result is “Not Active”.
On the same count and under the same terms, the value for `O=C1CC[C@@H](N2C(=O)c3ccccc3C2=O)C(=O)N1` was “Not Active”; that for `Cc1c(O)c(=O)ccn1C` [DEFERIPRONE] was “Not Active”; that for `CCCN1C[C@H](CSC)C[C@@H]2c3cccc4[nH]cc(c34)C[C@H]21` [PERGOLIDE] was “Not Active”.
Turning to LEAD (II) ACETATE, the IC50 result was “Not Active” and the Ki entry is listed as “Not Active”.
For CADMIUM ACETATE, the IC50 result is reported as “Not Active” and the Ki result was “Not Active”.
Consider `COc1cc2nc(N3CCN(C(=O)C4COc5ccccc5O4)CC3)nc(N)c2cc1OC` (centres undefined) [DOXAZOSIN], for which the IC50 result is on record as “Not Active”.

Another experiment has as its target T2, C-C chemokine receptor type 4 (Homo sapiens, UniProt P51679). Note: in other assays of this panel Not Active means under 50% inhibition at 10 µM.
T2 sequence (P51679 whole entry): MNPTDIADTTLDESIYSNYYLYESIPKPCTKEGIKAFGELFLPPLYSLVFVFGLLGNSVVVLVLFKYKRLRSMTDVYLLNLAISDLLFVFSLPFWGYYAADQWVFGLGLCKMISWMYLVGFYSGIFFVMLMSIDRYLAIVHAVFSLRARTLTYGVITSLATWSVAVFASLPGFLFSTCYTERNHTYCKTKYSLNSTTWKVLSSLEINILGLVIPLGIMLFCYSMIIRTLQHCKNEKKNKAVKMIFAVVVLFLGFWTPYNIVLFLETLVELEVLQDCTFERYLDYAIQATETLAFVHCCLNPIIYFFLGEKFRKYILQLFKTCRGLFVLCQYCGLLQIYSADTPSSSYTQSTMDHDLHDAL
Experiment: not given
The experiment is classed as cell membranes, Chem-1, Membrane. The settings on record: chem-1.
For `NC(=O)N1c2ccccc2CCc2ccccc21`, the half-maximal inhibitory concentration (IC50) result was “Not Active”.
Still for that read-out and setting: to `CC(C)C(Br)C(=O)NC(N)=O` (centres undefined) [BROMISOVALUM] belongs “Not Active”.
For the molecule `COc1ccc(C[C@H]2NC[C@H](O)[C@H]2OC(C)=O)cc1` [ANISOMYCIN], the IC50 result is “Not Active” and the Ki result is recorded as “Not Active”.
With `C[C@]12CCC(=O)C=C1CC[C@@H]1[C@@H]2CC[C@@]2(C)[C@H]1CC[C@]2(C)O` [METHYLTESTOSTERONE], the IC50 entry is “Not Active”.
On the same count and under the same terms, the value for `O=C1CC[C@@H](N2C(=O)c3ccccc3C2=O)C(=O)N1` was “Not Active”; that for `Cc1c(O)c(=O)ccn1C` [DEFERIPRONE] was “Not Active”.
For the molecule `CCCN1C[C@H](CSC)C[C@@H]2c3cccc4[nH]cc(c34)C[C@H]21` [PERGOLIDE], the IC50 entry was “Not Active”.
On the same count and under the same terms, to `CN(C)CCCN1c2ccccc2Sc2ccc(Cl)cc21` [CHLORPROMAZINE] belongs “Not Active”.
For LEAD (II) ACETATE, the IC50 result was “Not Active” and the Ki result is recorded as “Not Active”.
As for CADMIUM ACETATE, the IC50 result is recorded as “Not Active” and the Ki entry is listed as “Not Active”.
As for `COc1cc2nc(N3CCN(C(=O)C4COc5ccccc5O4)CC3)nc(N)c2cc1OC` (centres undefined) [DOXAZOSIN], the IC50 entry is given as “Not Active”.

The target in the next experiment is Cannabinoid receptor 1 (Homo sapiens, UniProt P21554). Note: in other assays of this panel Not Active means under 50% inhibition at 10 µM.
Chain of Cannabinoid receptor 1 (P21554 whole entry): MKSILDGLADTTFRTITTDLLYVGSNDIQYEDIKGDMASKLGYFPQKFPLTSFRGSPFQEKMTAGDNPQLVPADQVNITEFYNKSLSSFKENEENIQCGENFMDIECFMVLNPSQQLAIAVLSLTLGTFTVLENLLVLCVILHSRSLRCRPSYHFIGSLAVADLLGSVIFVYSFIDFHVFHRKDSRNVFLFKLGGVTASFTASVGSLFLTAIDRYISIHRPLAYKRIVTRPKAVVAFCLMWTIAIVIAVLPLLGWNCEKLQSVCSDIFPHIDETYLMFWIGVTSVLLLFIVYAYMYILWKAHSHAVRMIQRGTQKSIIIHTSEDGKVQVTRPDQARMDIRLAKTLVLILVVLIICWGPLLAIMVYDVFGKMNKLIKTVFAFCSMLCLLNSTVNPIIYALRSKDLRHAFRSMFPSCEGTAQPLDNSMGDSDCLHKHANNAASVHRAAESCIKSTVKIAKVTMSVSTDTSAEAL
Experiment: not given
The experiment is classed as cell membranes, Membrane. The settings on record: chem-1.
Turning to `NC(=O)N1c2ccccc2CCc2ccccc21`, the half-inhibitory concentration (IC50) result is on record as “Not Active”.
For the molecule `CC(C)C(Br)C(=O)NC(N)=O` (centres undefined) [BROMISOVALUM], the IC50 entry is “Not Active”.
`COc1ccc(C[C@H]2NC[C@H](O)[C@H]2OC(C)=O)cc1` [ANISOMYCIN]: the IC50 entry is reported as “Not Active” and the Ki result is “Not Active”.
`C[C@]12CCC(=O)C=C1CC[C@@H]1[C@@H]2CC[C@@]2(C)[C@H]1CC[C@]2(C)O` [METHYLTESTOSTERONE]: the IC50 entry is “Not Active”.
Still for that read-out and setting: the value for `O=C1CC[C@@H](N2C(=O)c3ccccc3C2=O)C(=O)N1` was “Not Active”; that for `Cc1c(O)c(=O)ccn1C` [DEFERIPRONE] was “Not Active”.
As for `CCCN1C[C@H](CSC)C[C@@H]2c3cccc4[nH]cc(c34)C[C@H]21` [PERGOLIDE], the IC50 entry was “Not Active”.
Still for that read-out and setting: to `CN(C)CCCN1c2ccccc2Sc2ccc(Cl)cc21` [CHLORPROMAZINE] belongs “Not Active”.
As to LEAD (II) ACETATE, the IC50 result was “Not Active” and the Ki result is “Not Active”.
As for CADMIUM ACETATE, the IC50 result is given as “Not Active” and the Ki entry is listed as “Not Active”.
Turning to `COc1cc2nc(N3CCN(C(=O)C4COc5ccccc5O4)CC3)nc(N)c2cc1OC` (centres undefined) [DOXAZOSIN], the IC50 entry is “Not Active”.

For a further experiment, the target named is T3, 5-hydroxytryptamine receptor 2C (Homo sapiens, UniProt P28335).
T3 sequence (P28335 whole entry): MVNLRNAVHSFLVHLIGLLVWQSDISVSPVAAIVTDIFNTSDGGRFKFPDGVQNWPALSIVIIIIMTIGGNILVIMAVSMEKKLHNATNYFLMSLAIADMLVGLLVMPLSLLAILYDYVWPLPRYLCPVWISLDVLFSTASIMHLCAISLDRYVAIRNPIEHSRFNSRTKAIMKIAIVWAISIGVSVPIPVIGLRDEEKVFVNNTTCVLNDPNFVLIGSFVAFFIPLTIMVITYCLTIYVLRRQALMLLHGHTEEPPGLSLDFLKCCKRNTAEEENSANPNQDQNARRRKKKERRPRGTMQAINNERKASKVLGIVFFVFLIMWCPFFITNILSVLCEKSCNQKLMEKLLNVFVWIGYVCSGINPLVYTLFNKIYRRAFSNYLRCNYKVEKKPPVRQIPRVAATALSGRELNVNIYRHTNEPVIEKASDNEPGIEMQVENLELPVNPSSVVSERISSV
The experiment can be described thus: DRUGMATRIX: Serotonin (5-Hydroxytryptamine) 5-HT2C radioligand binding (ligand: [3H] Mesulergine). The experiment is classed as cell membranes, CHO-K1, Membrane. The settings on record: cho-k1; Not Active = under 50% inhibition at 10 µM.
Regarding `NC(=O)N1c2ccccc2CCc2ccccc21`, the half-inhibitory concentration (IC50) entry is reported as “Not Active”.
Still for that read-out and setting: to `CC(C)C(Br)C(=O)NC(N)=O` (centres undefined) [BROMISOVALUM] belongs “Not Active”.
As for `COc1ccc(C[C@H]2NC[C@H](O)[C@H]2OC(C)=O)cc1` [ANISOMYCIN], the 50% inhibitory concentration (IC50) entry was “Not Active” and the Ki entry was “Not Active”.
Consider `C[C@]12CCC(=O)C=C1CC[C@@H]1[C@@H]2CC[C@@]2(C)[C@H]1CC[C@]2(C)O` [METHYLTESTOSTERONE], for which the concentration for half-maximal inhibition (IC50) entry is on record as “Not Active”.
On the same count and under the same terms, the value for `O=C1CC[C@@H](N2C(=O)c3ccccc3C2=O)C(=O)N1` was “Not Active”.
On the same count and under the same terms, the value for `Cc1c(O)c(=O)ccn1C` [DEFERIPRONE] was “Not Active”.
LEAD (II) ACETATE: the IC50 result was “Not Active” and the Ki result is “Not Active”.
In the case of CADMIUM ACETATE, the concentration for half-maximal inhibition (IC50) result is listed as “Not Active” and the Ki entry is listed as “Not Active”.

Tested on in a further experiment: not listed separately
Description: DRUGMATRIX: GABAA, Flunitrazepam, Central radioligand binding (ligand: [3H] Flunitrazepam). The class given is cell membranes, Rattus norvegicus, Wistar, Brain, Membrane. The settings on record: Not Active = under 50% inhibition at 10 µM.
As for `NC(=O)N1c2ccccc2CCc2ccccc21`, the half-maximal inhibitory concentration (IC50) result is reported as “Not Active” and the Ki entry is “Not Active”.
For the molecule `CC(C)C(Br)C(=O)NC(N)=O` (centres undefined) [BROMISOVALUM], the IC50 entry is listed as “Not Active” and the Ki entry is “Not Active”.
As to `COc1ccc(C[C@H]2NC[C@H](O)[C@H]2OC(C)=O)cc1` [ANISOMYCIN], the IC50 result is on record as “Not Active” and the Ki result was “Not Active”.
With `C[C@]12CCC(=O)C=C1CC[C@@H]1[C@@H]2CC[C@@]2(C)[C@H]1CC[C@]2(C)O` [METHYLTESTOSTERONE], the 50% inhibitory concentration (IC50) entry is “Not Active” and the Ki result is given as “Not Active”.
As to `O=C1CC[C@@H](N2C(=O)c3ccccc3C2=O)C(=O)N1`, the half-inhibitory concentration (IC50) result is on record as “Not Active” and the Ki entry is listed as “Not Active”.
Regarding `Cc1c(O)c(=O)ccn1C` [DEFERIPRONE], the 50% inhibitory concentration (IC50) result is listed as “Not Active” and the Ki result was “Not Active”.
As to `CCCN1C[C@H](CSC)C[C@@H]2c3cccc4[nH]cc(c34)C[C@H]21` [PERGOLIDE], the IC50 result was “Not Active” and the Ki entry was “Not Active”.
As to `CN(C)CCCN1c2ccccc2Sc2ccc(Cl)cc21` [CHLORPROMAZINE], the IC50 entry was “Not Active” and the Ki entry is “Not Active”.
As for LEAD (II) ACETATE, the IC50 result was “Not Active” and the Ki entry is listed as “Not Active”.
In the case of CADMIUM ACETATE, the IC50 entry was “Not Active” and the Ki result is on record as “Not Active”.
Regarding `COc1cc2nc(N3CCN(C(=O)C4COc5ccccc5O4)CC3)nc(N)c2cc1OC` (centres undefined) [DOXAZOSIN], the IC50 entry is recorded as “Not Active” and the Ki entry is listed as “Not Active”.
